Assay results published in ChEMBL document CHEMBL1201862, “PubChem BioAssay data set” (2004).
Active and inactive are the calls of the source.

Experiments:
[1] = target: SWI/SNF-related matrix-associated actin-dependent regulator of chromatin subfamily A member 2 (Homo sapiens, UniProt P51531); assay: Luminescence-based cell-based high throughput dose response assay to identify activators of the function of SWI/SNF related, matrix associated, actin dependent regulator of chromatin, subfamily a, member 2 (SMARCA2, BRM).; format: functional
[2] = Counterscreen for activators of the function of SWI/SNF related, matrix associated, actin dependent regulator of chromatin, subfamily a, member 2 (SMARCA2, BRM): Luminescence-based cell-based high throughput dose response assay to identify non-selective compounds using the VP16 reporter assay.; format: functional
[3] = target: FAD-linked sulfhydryl oxidase ALR (Homo sapiens, UniProt P55789); assay: ALR-catalysed DTT oxidation blockers – biochemical, H2O2 detection, luminescence, cherry-pick, dose response (AID 493248)
[4] = target: T1, Replicative DNA helicase DnaB (Mycobacterium tuberculosis, UniProt P9WMR3); assay: DnaB intein splicing inhibitors, dose response, biochemical, cell-free fluorescence (AID 449749); format: functional
T1 sequence (P9WMR3 whole entry): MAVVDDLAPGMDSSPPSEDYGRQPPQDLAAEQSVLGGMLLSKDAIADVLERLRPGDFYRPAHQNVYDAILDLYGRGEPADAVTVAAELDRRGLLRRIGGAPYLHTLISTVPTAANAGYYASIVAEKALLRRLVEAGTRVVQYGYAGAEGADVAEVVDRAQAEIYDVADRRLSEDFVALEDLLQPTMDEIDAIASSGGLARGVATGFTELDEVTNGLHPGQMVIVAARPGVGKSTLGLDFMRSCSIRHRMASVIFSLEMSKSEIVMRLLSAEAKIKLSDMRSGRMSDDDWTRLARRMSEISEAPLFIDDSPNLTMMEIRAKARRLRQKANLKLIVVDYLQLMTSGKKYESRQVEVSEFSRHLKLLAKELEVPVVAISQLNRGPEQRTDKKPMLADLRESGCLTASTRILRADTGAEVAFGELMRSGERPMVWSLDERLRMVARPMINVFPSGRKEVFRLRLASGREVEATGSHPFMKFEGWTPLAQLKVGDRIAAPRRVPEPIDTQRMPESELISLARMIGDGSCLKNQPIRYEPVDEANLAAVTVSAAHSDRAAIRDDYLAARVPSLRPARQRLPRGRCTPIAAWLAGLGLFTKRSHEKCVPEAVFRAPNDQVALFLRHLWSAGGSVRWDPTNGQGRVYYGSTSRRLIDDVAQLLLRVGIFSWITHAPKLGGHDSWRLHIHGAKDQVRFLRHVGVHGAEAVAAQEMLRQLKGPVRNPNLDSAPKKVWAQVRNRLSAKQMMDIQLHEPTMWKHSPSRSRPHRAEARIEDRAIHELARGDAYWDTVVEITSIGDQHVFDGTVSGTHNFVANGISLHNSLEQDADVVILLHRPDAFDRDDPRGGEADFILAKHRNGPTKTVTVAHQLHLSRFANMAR

[5] = loss of viability in HepG2 cells – cell-based, CellTiter-Glo, cherry-picked, cytotoxicity control for Shn3 inhibitor project, dose response (AID 624134); format: functional
Beta Lactamase = Beta Lactamase (Pseudomonas aeruginosa, UniProt Q932Y6); assay: BLA reporter interference, concentration series – BLA reporter cells, FRET fluorescence, artefact control for NOD2-RIPK2 interaction inhibitor project, dose response (AID 651552); format: functional, cell-based
Protein RecA = target: T2, Protein RecA (Mycobacterium tuberculosis, UniProt P9WHJ3); assay: Fluorescence Cell-Free Homogeneous Dose Retest to Identify Inhibitors of RecA-Intein Splicing Activity. [Related pubchem assays (depositor defined):AID2097, AID2223, AID489010, AID492950]; format: functional
T2 sequence (P9WHJ3 whole entry): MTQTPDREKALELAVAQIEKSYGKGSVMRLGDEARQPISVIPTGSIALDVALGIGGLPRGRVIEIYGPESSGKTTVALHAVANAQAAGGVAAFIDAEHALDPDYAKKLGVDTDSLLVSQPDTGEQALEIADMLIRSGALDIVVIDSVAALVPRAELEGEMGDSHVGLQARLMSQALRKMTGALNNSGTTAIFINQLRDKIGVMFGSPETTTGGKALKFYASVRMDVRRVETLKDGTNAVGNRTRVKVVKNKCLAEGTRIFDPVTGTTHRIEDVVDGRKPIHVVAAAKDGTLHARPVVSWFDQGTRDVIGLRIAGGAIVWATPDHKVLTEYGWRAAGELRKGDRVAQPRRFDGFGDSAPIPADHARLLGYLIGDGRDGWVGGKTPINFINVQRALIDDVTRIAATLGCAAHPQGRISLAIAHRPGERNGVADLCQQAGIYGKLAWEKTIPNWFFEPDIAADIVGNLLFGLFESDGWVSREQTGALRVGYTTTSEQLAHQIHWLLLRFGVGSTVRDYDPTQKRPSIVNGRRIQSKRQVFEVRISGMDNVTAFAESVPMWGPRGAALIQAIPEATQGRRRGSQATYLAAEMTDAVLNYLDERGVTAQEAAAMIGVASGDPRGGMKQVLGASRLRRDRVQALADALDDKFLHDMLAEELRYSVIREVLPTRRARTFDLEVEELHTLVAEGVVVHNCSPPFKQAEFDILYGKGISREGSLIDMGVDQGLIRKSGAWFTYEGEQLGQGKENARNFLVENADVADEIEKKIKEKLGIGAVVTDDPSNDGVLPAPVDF

[6] = Fluorescence-based cell-based high throughput dose response assay for inhibitors of the interaction of nucleotide-binding oligomerization domain containing 2 (NOD2) and the receptor-interacting serine-threonine kinase 2 (RIPK2).; format: functional; details: Homo sapiens
[7] = reduction of Shn3 3'UTR-driven luciferase in osteoblasts – cell-based, Clone20 osteoblasts, firefly luciferase, cherry-picked, dose response (AID 624132); format: functional;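 note: firefly luciferase luminescence from reporter carrying the Shn3 3'UTR in osteoblasts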
[8] = non-specific 3'UTR reporter inhibition in Clone20-Shn3RL – cell-based, Renilla luciferase, cherry-picked, counter-screen for Shn3 inhibitor project, dose response (AID 624133); format: functional
cells = format: functional, cell-based
Protein Wnt-3a [9] = target: T3, Protein Wnt-3a (Mus musculus, UniProt P27467); assay: SAR analysis of small molecule antagonists of Gli-SUFU in a Wnt3a luminescent reporter assay.; format: functional
[10] = HEK-293T cell viability reduction – luminescence, B-cell screen hits, cytotoxicity control for BCR NF-kB inhibitor project, dose response (AID 489021); format: functional, cell-based;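 note: HEK-293T cells carrying an NF-kB luciferase reporter; cells exposed to compound for about 14 hours before viability readout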
Protein Wnt-3a [11] = target: T3, Protein Wnt-3a; assay: antagonism of Wnt3a pathway luciferase reporter – Wnt-LIGHT cells, luminescence, selectivity assay for Gli-SUFU antagonist project, dose response (AID 651570); format: functional; details: read-out: IC50_Mean;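 note: Wnt-LIGHT reporter cells stimulated with conditioned medium from Wnt3a-producing cells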
[12] = viability loss in HeLa cells – cytotoxicity control for MgcRacGAP inhibitor project, dose response (AID 624300); format: functional
[13] = target: Heat shock protein HSP 90-alpha (Homo sapiens, UniProt P07900); format: functional, organism-based
Vero = assay: viability of Vero cells under compound – cytotoxicity control for flavivirus capping enzyme inhibitors (AID 588742); format: functional; details: Chlorocebus sabaeus
Genome polyprotein = Genome polyprotein (dengue virus type 2, UniProt P29990); assay: flavivirus cap methylation enzyme inhibition – biochemical, confirmation dose response, primary screen (AID 588689); format: functional
[14] = target: Glucose-6-phosphate 1-dehydrogenase (Homo sapiens, UniProt P11413); assay: inhibition of Homo sapiens G6PD, dose series – biochemical, fluorescence, selectivity assay for P. falciparum G6PD inhibitor project, dose response (AID 504792); format: functional
[15] = target: T4, Rac GTPase-activating protein 1 (Homo sapiens, UniProt Q9H0H5); assay: blockers of MgcRacGAP-driven Rac1 GTP hydrolysis – biochemical, ADP Hunter fluorescence, primary and confirmatory, confirmation (AID 624330); format: functional
T4 sequence (Q9H0H5 whole entry): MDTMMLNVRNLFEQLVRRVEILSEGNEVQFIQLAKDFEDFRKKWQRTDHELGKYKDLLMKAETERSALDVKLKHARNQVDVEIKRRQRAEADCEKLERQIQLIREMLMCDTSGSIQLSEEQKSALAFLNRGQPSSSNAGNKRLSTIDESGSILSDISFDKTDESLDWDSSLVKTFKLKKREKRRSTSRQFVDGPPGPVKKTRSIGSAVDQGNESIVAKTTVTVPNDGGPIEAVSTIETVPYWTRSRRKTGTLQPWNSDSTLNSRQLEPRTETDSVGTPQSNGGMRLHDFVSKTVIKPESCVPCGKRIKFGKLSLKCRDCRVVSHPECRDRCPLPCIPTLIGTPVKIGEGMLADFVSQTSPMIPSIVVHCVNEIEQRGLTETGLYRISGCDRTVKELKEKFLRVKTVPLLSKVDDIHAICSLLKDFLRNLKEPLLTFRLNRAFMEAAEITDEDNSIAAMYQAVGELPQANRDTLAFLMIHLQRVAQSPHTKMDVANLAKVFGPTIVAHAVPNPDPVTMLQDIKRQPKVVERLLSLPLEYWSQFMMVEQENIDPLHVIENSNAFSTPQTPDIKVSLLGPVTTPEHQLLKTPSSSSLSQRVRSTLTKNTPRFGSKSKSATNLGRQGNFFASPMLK

[16] = target: Photoreceptor-specific nuclear receptor (Homo sapiens, UniProt Q9Y5X4); format: functional, cell-based;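 note: CHO-S cells with Gal4-NCOR and VP16-NR2E3 two-hybrid luciferase reporter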
[17] = viability loss in HEK293T cells – cell-based, cherry-picks, cytotoxicity control for HIV Vif inhibitor project, dose response (AID 652208); format: functional
[18] = IGROV1 cell killing – plate reader, dry powder samples, PAX8 inhibitor project, dose response (AID 743043); format: functional, cell-based; details: IGROV-1
Paired box protein Pax-8 = Paired box protein Pax-8 (Homo sapiens, UniProt Q06710); assay: PAX8 transcriptional activity inhibition in RMG-I – RMG-I cells, luciferase, cherry-pick, dose response (AID 687027); format: functional, cell-based;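 note: luciferase reporter driven by Pax8 target thyroperoxidase promoter measured by SteadyGlo luminescence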
[19] = mouse fibroblast viability loss – cell-based, cherry-pick samples, set 2, cytotoxicity control for T. cruzi growth inhibitor project, dose response (AID 651817); format: functional; details: NIH3T3
[20] = OVCAR-3 cell viability loss – plate reader, dry powder samples, PAX8 inhibitor project, dose response (AID 743044); format: functional, cell-based
[21] = general cell-killing toxicity readout – plate reader, dry powder samples, cytotoxicity control for PAX8 inhibitor project, dose response (AID 743021); format: functional, cell-based
[22] = activation of miR-122 Renilla sensor silencing – cell-based, Huh7 psiCHECK-miR122, Renilla luciferase, cherry-picked, dose response (AID 651956); format: functional;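 note: huh7 hepatoma cells stably carrying a psiCHECK-2 miR-122 sensor plasmid; renilla luciferase signal reporting endogenous miR-122 activity after 48 h compound exposure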
[23] = general mammalian cell viability loss – activator set, cherry-pick, cytotoxicity control for miR-122 modulator project, dose response (AID 720690); format: functional, cell-based;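 note: HEK293T human cells scored for general mammalian cytotoxicity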
[24] = OVCAR8 cell viability loss – plate reader, dry powder samples, PAX8 project, dose response (AID 743197); format: functional, cell-based; details: OVCAR-8
[25] = CMV-driven luciferase expression suppression in HEK293 – cell-based, luminescence, dry powder, counter-screen for Pax8 inhibitor project, dose response (AID 743020); format: functional

T3 sequence (P27467 whole entry): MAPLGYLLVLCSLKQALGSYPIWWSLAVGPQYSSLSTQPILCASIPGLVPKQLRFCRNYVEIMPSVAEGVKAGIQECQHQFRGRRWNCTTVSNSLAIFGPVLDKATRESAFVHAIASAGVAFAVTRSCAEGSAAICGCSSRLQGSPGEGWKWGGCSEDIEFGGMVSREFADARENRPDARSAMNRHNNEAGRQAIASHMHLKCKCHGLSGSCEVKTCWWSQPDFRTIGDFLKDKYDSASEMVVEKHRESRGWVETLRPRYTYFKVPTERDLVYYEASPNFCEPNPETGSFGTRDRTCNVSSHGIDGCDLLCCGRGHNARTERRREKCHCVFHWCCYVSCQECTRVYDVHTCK
Chain of Paired box protein Pax-8 (Q06710 whole entry): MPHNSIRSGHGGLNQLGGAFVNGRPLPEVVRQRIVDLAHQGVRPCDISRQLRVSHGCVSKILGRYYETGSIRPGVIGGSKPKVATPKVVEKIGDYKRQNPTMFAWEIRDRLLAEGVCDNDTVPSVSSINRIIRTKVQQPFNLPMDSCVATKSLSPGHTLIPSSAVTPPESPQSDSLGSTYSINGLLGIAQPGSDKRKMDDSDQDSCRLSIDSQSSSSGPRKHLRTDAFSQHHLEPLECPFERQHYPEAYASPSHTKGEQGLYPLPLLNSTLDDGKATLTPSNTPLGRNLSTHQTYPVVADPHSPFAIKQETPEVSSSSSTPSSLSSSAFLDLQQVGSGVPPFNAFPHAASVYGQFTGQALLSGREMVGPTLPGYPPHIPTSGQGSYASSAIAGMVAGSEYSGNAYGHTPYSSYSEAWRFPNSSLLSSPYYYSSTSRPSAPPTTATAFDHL
Chain of Beta Lactamase (Q932Y6 whole entry): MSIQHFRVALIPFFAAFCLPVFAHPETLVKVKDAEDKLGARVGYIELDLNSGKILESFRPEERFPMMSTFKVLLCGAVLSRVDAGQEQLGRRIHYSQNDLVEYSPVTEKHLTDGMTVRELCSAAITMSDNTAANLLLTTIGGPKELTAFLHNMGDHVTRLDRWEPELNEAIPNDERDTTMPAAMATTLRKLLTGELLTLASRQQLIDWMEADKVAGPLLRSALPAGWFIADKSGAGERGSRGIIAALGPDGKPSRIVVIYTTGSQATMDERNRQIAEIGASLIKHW
Chain of SWI/SNF-related matrix-associated actin-dependent regulator of chromatin subfamily A member 2 (P51531 whole entry): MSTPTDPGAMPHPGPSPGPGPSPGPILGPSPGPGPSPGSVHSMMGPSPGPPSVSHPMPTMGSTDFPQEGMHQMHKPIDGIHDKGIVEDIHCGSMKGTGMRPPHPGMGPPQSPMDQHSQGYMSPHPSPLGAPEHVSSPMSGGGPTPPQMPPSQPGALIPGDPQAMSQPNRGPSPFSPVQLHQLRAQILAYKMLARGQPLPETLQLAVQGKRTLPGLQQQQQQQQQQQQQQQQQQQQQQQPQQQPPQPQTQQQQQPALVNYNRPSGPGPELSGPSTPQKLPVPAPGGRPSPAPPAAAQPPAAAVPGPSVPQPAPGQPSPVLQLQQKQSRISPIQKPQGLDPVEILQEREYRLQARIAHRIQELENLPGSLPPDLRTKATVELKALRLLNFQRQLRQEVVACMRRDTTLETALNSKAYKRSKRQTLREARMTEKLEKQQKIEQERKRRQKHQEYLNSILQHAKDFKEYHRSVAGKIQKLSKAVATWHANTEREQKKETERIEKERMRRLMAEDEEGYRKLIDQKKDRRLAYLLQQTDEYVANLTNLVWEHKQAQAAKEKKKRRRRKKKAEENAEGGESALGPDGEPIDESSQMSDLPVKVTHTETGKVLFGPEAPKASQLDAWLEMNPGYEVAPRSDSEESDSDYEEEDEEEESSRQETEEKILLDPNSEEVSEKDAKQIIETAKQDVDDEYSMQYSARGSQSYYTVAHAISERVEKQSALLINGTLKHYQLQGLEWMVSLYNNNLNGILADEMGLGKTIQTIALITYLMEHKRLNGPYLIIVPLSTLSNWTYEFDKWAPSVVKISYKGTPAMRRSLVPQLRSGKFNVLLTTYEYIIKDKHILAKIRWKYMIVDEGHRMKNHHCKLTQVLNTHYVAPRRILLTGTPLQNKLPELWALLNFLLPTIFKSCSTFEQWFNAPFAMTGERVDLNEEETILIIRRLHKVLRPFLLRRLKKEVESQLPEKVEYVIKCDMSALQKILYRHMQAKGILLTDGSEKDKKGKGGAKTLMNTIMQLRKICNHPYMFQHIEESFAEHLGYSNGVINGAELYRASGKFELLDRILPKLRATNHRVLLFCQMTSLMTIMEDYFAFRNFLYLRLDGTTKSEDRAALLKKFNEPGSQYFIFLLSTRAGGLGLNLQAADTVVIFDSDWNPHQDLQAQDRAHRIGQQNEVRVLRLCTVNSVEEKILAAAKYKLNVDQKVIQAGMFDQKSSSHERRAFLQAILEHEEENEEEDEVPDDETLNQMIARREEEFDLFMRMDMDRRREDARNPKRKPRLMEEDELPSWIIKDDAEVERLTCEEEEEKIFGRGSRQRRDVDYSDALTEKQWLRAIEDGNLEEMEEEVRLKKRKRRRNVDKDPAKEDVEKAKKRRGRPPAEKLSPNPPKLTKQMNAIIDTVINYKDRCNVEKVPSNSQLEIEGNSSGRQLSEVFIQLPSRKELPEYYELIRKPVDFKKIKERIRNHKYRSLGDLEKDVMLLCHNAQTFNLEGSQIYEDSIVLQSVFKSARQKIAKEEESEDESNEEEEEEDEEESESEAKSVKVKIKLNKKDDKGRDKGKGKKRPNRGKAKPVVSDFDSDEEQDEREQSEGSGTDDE
Chain of Genome polyprotein (P29990 2492-3391 limits assumed): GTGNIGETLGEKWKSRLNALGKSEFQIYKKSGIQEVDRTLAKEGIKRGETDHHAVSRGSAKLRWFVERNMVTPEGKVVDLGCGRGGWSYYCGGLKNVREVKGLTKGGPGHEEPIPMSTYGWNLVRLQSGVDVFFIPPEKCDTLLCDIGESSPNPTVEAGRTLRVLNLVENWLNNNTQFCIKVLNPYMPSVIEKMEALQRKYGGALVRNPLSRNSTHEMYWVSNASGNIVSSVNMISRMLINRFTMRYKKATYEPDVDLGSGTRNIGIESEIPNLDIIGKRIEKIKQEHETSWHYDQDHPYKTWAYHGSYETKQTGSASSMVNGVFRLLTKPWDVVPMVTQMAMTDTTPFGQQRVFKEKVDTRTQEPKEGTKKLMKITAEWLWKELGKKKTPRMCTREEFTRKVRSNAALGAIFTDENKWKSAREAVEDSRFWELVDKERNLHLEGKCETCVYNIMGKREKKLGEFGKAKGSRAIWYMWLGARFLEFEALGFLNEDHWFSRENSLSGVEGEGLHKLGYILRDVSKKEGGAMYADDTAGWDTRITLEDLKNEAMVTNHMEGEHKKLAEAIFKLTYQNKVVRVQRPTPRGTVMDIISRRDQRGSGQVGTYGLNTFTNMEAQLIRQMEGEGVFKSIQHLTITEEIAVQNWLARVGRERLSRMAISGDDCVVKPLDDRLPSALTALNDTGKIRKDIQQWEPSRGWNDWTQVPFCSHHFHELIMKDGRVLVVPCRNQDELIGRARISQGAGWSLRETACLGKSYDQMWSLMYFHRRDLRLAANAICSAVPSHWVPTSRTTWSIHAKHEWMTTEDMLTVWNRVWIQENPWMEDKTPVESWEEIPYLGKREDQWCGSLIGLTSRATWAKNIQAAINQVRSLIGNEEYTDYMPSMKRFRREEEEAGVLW
Chain of Glucose-6-phosphate 1-dehydrogenase (P11413 whole entry): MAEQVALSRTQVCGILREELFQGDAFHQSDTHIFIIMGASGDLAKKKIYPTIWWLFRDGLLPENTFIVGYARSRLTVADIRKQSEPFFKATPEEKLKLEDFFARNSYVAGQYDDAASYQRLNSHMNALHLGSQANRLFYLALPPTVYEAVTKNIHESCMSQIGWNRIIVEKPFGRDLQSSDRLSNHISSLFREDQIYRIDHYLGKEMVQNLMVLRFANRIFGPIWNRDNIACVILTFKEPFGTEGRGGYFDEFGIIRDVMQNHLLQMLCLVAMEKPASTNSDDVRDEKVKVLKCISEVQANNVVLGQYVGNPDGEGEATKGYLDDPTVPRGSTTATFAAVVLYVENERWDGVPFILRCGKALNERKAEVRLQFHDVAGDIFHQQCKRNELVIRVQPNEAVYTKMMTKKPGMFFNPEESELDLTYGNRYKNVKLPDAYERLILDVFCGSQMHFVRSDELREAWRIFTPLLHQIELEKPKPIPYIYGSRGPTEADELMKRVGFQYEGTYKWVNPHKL
Chain of FAD-linked sulfhydryl oxidase ALR (P55789 whole entry): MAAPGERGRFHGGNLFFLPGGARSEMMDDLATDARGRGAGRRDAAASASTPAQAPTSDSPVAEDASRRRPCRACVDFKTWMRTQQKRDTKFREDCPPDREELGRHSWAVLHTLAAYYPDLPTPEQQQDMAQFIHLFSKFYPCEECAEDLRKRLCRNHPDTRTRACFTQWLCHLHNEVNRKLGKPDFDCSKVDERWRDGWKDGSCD
Chain of Photoreceptor-specific nuclear receptor (Q9Y5X4 whole entry, the tested form may be a part): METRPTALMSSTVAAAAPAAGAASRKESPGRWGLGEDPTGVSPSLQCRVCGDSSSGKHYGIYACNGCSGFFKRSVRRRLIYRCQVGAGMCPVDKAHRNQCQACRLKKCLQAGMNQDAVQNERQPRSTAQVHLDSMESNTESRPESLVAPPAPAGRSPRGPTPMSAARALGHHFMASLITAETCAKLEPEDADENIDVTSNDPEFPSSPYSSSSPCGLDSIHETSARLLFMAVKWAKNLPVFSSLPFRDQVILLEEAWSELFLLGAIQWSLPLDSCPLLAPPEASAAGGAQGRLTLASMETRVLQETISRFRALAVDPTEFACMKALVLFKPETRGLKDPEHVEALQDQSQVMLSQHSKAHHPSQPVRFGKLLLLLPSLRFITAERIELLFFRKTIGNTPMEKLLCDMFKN

CN(C)P(=O)(C(Cl)=C(N1CCCCC1)N1CCCCC1)N(C)C
EC50 [1]: > 91.1 µM (inactive) | EC50 [2]: > 91.1 µM (inactive) | AC50 [3]: 41.1 µM (active)

COc1ccc(CNC(=O)c2nc(S(=O)(=O)Cc3ccccc3)ncc2Cl)cc1
AC50 [4]: 4.17 µM (active) | AC50 [5]: 30.8 µM (active) | IC50 (Beta Lactamase): 21 µM (inactive) | EC50 (Protein RecA): 4.07 µM (active) | IC50 [6]: 2.96 µM (active) | AC50 [7]: 0.956 µM (active) | AC50 [8]: 7.01 µM (active)

CCc1nnc(NS(=O)(=O)c2ccc(NC=C3C(=O)CC(C)(C)CC3=O)cc2)s1
IC50 (cells): 60.8 µM (inactive)

CCOc1ccc(S(=O)(=O)NCc2ccncc2)cc1NC(=O)c1ccccc1
IC50 (Protein Wnt-3a [9]): > 21.8 µM (inactive) | IC50 [10]: > 80 µM (inactive) | IC50 (Protein Wnt-3a [11]): 33.2 µM (inactive)

CCc1nc(C)cc2c1sc1ccccc12
EC50 [1]: > 91.2 µM (inactive) | EC50 [2]: > 91.2 µM (inactive)

O=C1NC(=O)N(c2ccc(Cl)cc2)C(=O)/C1=C\Nc1ccc(S(=O)(=O)Nc2nccs2)cc1
IC50 (cells): 74.7 µM (inactive)

O=C1/C(=C\c2ccc([N+](=O)[O-])cc2)CS(=O)(=O)C/C1=C/c1ccc([N+](=O)[O-])cc1
CC50 [12]: 25 µM (active) | AC50 [13]: 0.353 µM (active) | CC50 (Vero): 0.46 µM (active) | IC50 (Genome polyprotein): > 100 µM (active) | IC50 (Beta Lactamase): 36.4 µM (inactive) | IC50 [14]: > 80 µM (inactive) | IC50 [6]: 0.93 µM (active) | IC50 [15]: 24.8 µM (active) | IC50 [16]: 2 µM (active)

O=C(c1cc(-c2ccncc2)nc2ccccc12)N1CCN(Cc2ccccc2)CC1
AC50 [17]: > 52 µM (inactive)

Cc1ccc(S(=O)(=O)Nc2ccc3c(c2)CC(=O)N([C@@H](C)CO)C[C@@H](C)[C@H](CN(C)Cc2ccc(Cl)c(Cl)c2)O3)cc1
AC50 [18]: 49.9 µM (active) | AC50 (Paired box protein Pax-8): 5.67 µM (active) | AC50 [19]: 12.3 µM (active) | AC50 [20]: 31.8 µM (active)

COc1cc(C=C2C(=O)C=CC2=O)ccc1O
AC50 (Paired box protein Pax-8): 1.63 µM (active) | AC50 [21]: 19.1 µM (active)

CN1C(=O)c2cc(NS(=O)(=O)c3ccc(Cl)cc3)ccc2OC[C@@H]2O[C@H](CC(=O)N3CCc4ccccc4C3)CC[C@H]21
AC50 [22]: 19.1 µM (active) | AC50 [23]: 46.9 µM (active)

C[C@H](CO)N1C[C@H](C)[C@H](CN(C)Cc2ccc(Cl)c(Cl)c2)Oc2ccc(NS(=O)(=O)c3ccc(F)cc3)cc2CC1=O
AC50 [19]: 9.99 µM (active)

COc1ccc(NC(=O)N(C)C[C@H]2OCCCC[C@@H](C)Oc3ccc(NC(=O)Nc4ccc(C(F)(F)F)cc4)cc3C(=O)N([C@@H](C)CO)C[C@@H]2C)cc1
AC50 [24]: > 70 µM (inactive) | AC50 (Paired box protein Pax-8): 3.41 µM (active) | AC50 [20]: 24 µM (active) | AC50 [25]: 41 µM (active)

CC(C)CNc1cc(NC(=O)c2ccccc2)ncn1
IC50 (Protein Wnt-3a [9]): > 21.8 µM (inactive)
